The values that follow are results of earlier work, collected in patent US20160095850A1, “METHODS AND COMPOSITIONS FOR TREATMENT OF HIV INFECTION” (COOPER HUMAN SYSTEMS LLC, priority 2013, published 2016).

Usually IC50 stands for the concentration needed to halve the response being measured. As a reminder, the EC50 is the concentration that produces a half-maximal response.

For one data set, the target named is HDAC3 (Homo sapiens, UniProt O15379).
A further data set has as its target T1, HDAC8 (Homo sapiens, UniProt Q9BY41).
T1 sequence (Q9BY41 1-377): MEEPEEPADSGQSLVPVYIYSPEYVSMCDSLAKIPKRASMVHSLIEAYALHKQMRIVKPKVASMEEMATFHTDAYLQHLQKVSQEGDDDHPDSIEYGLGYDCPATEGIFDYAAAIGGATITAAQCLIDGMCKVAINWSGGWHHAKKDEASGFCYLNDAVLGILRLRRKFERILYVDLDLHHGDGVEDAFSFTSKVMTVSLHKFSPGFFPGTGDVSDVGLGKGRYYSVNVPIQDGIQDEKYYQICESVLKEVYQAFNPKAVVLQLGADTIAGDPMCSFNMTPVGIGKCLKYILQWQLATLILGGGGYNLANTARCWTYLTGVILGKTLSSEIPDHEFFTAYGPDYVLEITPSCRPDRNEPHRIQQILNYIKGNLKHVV

The conditions of data set [1]: human, in vivo.
For data set [2], the system named is HIV RNA expression in CD4 T cells.
Data set [3] concerns HIV-RNA in resting CD4 T cells. As to conditions: single dose of 400 mg.
A further data set has as its system A549 cells. The note with it: read-out: EC50, dose-dependent increase in acetylated histone levels.
Data set [4] concerns HDAC activity in HeLa extracts. As to conditions: read-out: IC50 for inhibition of HDAC activity.

Some results are limits rather than exact numbers.

Chain of HDAC3 (O15379 whole entry): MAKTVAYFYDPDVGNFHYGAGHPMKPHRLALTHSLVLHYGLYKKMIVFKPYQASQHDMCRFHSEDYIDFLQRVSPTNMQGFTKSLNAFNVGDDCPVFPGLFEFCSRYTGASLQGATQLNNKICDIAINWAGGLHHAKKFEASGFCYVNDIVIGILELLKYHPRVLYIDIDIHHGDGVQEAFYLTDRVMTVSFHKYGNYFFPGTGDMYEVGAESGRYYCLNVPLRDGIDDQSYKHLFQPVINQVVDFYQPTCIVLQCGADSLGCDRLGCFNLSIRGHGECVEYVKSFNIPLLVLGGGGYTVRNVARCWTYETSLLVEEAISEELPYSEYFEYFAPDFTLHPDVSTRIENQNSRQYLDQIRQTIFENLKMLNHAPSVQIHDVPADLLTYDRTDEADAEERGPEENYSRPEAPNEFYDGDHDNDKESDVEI
Chain of HDAC3 (Q9Y618 395-489 partner limits assumed): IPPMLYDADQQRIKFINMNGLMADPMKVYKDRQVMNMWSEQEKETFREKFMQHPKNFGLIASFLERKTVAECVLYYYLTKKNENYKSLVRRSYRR

`O=C(CCCCCCC(=O)NO)NO` [SBHA, Suberohydroxamic acid]: on HDAC3, the half-maximal inhibitory concentration (IC50) was 0.3 µM.
Take `Cc1cc(Cl)ccc1OCCCC(=O)NO` [Droxinostat]: the IC50 on HDAC3 was 16.9 µM; in the data set with other HDAC members, more than 20 µM; on HDAC8, 1.46 µM.
Take `NCCCCN(Cc1nc2ccccc2[nH]1)[C@H]1CCCc2cccnc21` [AMD070]: the “median estimated terminal half-life” value in data set [1] is 7.6 to 12.6 h.
On to “IL-15: cytokine promoting activation and maintenance of NK and CD8 T effector memory cells”, for which the “expansion of CD8 T(EM) cells in the peripheral blood” value in the data set on CD8 T(EM) cells (20 μg/kg/d by continuous intravenous infusion for 10 days) is 100 fold. In the data set with CD8 T(EM) cells (20-40 μg/kg/d by subcutaneous injection), the “expansion of CD8 T(EM) cells” value is reported as 10 fold.
Consider `O=C(CCCCCCC(=O)Nc1ccccc1)NO` [Vorinostat, suberoylanilide hydroxamic acid], for which, in data set [2], the “course of the induction of HIV RNA” value was “transient and diminished after 24 hours”. In data set [3], the “evaluated subjects with significantly increased expression of HIV-RNA in isolated resting CD4 T cells” value is on record as 8 of 8.
As to `Nc1ccccc1NC(=O)CCCCCCC(=O)Nc1ccccc1` [BML-210], in the data set on A549 cells, the concentration giving a half-maximal response (EC50) was 36 µM. In addition, the IC50 in [4] is 80 µM.
